Test system: 743489-274-T-PDC complex spheroid growth
Assay: Anticancer human tumor 743489-274-T-PDC patient-derived renal cell carcinoma cell line growth inhibition [AhR]
Conditions: for IC50: curve of first compound; for viability, T/C: stronger effect = lower value
Text: Multicellular complex tumor spheroid response to aryl hydrocarbon receptor antagonists in combination with a variety of drugs and investigational agents in selected tumor cell lines
The current study was undertaken to assess response to aryl hydrocarbon receptor antagonists in combination with standard-of-care drugs and investigational agents in solid tumor complex spheroid models. Complex spheroids include a stromal component modeled by human endothelial cells (HUVEC) and fibroblasts modeled by human mesenchymal stem cells (MSCs). The concentration ranges selected for each drug and investigational agent were based upon clinically achievable concentrations if the clinical Cmax of the agent was known.
Compounds. The drugs and investigational agents: BAY 2416964 (NSC825713), GNF351 (NSC835774), CH-223191 (NSC835775), CPI-455 (NSC825282), aza-TdCyd (NSC777586), decitabine (NSC127716), belinostat (NSC758774), entinostat (NSC756642), pevonedistat (NSC761192), tazemetostat (NSC777109), talazoparib (NSC765396), olaparib (NSC753686), selinexor (NSC780203), nedisertib (M3814, NSC802822), bortezomib (NSC756655), venetoclax (NSC766270), doxorubicin (NSC123127), elimusertib (BAY189344, NSC800525), ceralasertib (AZD6738, NSC777638), TAK-243 (NSC785004), alisertib (NSC759677), etoposide (NSC141540), topotecan (NSC609699), eribulin (NSC707389), gemcitabine (NSC613327), carboplatin (NSC241240), cisplatin (NSC119875), and SN-38 (NSC673596) were obtained from the National Cancer Institute (NCI) Developmental Therapeutics Program Chemical Repository (32). The FDA-approved anticancer drug set is available from the Developmental Therapeutics Program at https://dtp.cancer.gov/organization/dscb/obtaining/available plates.htm. […] The stock solutions were prepared in dimethyl sulfoxide (DMSO, Sigma-Aldrich, St. Louis, MO, cat. D2650), except for the platinum compounds which were prepared in saline (Quality Biological, Gaithersburg, MD, cat. 114-055-101), at 800-fold the tested concentration and stored at -70 degrees C prior to their use. All drugs and investigational agents were tested over a range starting from a high concentration at or near the clinical Cmax and decreasing in half-log increments. If the clinical Cmax for an agent had not been determined, the highest concentration tested was 10 microM (Table 1).
Cell Culture. All cells were maintained in an incubator at 37 degrees C and 5% CO2 with 95% humidity. The PDC lines were cultured according to standard operating procedures established by the NCI PDMR (https://pdmr.cancer.gov). Briefly, all PDCs were thawed and cultured in Matrigel-coated flasks prepared with a working solution of 1X Ham's F-12 nutrient mix, without supplementation (Invitrogen, Waltham, MA, cat. 11765054), 100 U/mL penicillin-streptomycin (Invitrogen, cat. 15140122), and 2.5% Matrigel (Corning Inc., Corning, NY, cat. 354248) for the first three passages. All PDCs were cultured in complete DMEM/F-12 media containing advanced DMEM/F-12 (Invitrogen, cat. 12634028), 4.9% defined fetal bovine serum, heat inactivated (HyClone Laboratories Inc., Logan, UT, cat. SH30070.03HI), 389 ng/mL hydrocortisone (Sigma-Aldrich, cat. H4001), 9.7 ng/mL human EGF recombinant protein (Invitrogen, cat. PHG0313), 23.4 microg/mL adenine (Sigma-Aldrich, cat. A2786), 97.3 U/mL penicillin-streptomycin (Invitrogen, cat. 15140122), 1.9 mM L-glutamine (Invitrogen, cat. 25030081), and 9.7 microM Y-27632 dihydrochloride (Tocris Bioscience, Bristol, United Kingdom, cat. 1254). The PDCs were cultured in complete DMEM/F12 media without 10 microM Y-27632 dihydrochloride for at least two passages prior to the screen. The established cell lines NCI-H1341 and […] were cultured in DMEM/F-12, HEPES (Invitrogen, cat. 11330032), 5% defined fetal bovine serum (HyClone Laboratories Inc., cat. SH30070.03), ITS premix universal culture supplement [insulin (5 microg/mL), transferrin (5 microg/mL), and selenious acid (5 ng/mL)] […]

[1] = second compound 0.1 µM, first compound 0.0316 µM
[2] = second compound 0.1 µM, first compound 0.1 µM
[3] = second compound 0.1 µM, first compound 0.316 µM
[4] = second compound 0.1 µM, first compound 1 µM
[5] = second compound 0.1 µM, first compound 3.16 µM
[6] = second compound 0.1 µM, first compound 10 µM
[7] = second compound 0.316 µM, first compound 0.0316 µM
[8] = second compound 0.316 µM, first compound 0.1 µM
[9] = second compound 0.316 µM, first compound 0.316 µM
[10] = second compound 0.316 µM, first compound 1 µM
[11] = second compound 0.316 µM, first compound 3.16 µM
[12] = second compound 0.316 µM, first compound 10 µM
[13] = second compound 1 µM, first compound 0.0316 µM
[14] = second compound 1 µM, first compound 0.1 µM
[15] = second compound 1 µM, first compound 0.316 µM
[16] = second compound 1 µM, first compound 1 µM
[17] = second compound 1 µM, first compound 3.16 µM
[18] = second compound 1 µM, first compound 10 µM
[19] = second compound 3.16 µM, first compound 0.0316 µM
[20] = second compound 3.16 µM, first compound 0.1 µM
[21] = second compound 3.16 µM, first compound 0.316 µM
[22] = second compound 3.16 µM, first compound 1 µM
[23] = second compound 3.16 µM, first compound 3.16 µM
[24] = second compound 3.16 µM, first compound 10 µM
[25] = second compound 10 µM, first compound 0.0316 µM
[26] = second compound 10 µM, first compound 0.1 µM
[27] = second compound 10 µM, first compound 0.316 µM
[28] = second compound 10 µM, first compound 1 µM
[29] = second compound 10 µM, first compound 3.16 µM
[30] = second compound 10 µM, first compound 10 µM
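Note: spheroids exposed to agents for 7 days before readout.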
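Throughout, for viability, T/C: 100% = DMSO vehicle control wells.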

SMILES: COc1cc(C2c3cc4c(cc3C(OC3OC5COC(C)OC5C(O)C3O)C3COC(=O)C23)OCO4)cc(OC)c1O (stereo not given) + CC(CO)NC(=O)c1cc(-c2ccc(Cl)cc2)nn(-c2cnn(C)c2)c1=O
- IC50 (second compound 0.1 µM): > 10 µM
- IC50 (second compound 0.316 µM): > 10 µM
- IC50 (second compound 1 µM): > 10 µM
- IC50 (second compound 3.16 µM): > 10 µM
- IC50 (second compound 10 µM): > 10 µM
- viability, T/C [1]: 107%
- viability, T/C [2]: 114%
- viability, T/C [3]: 95.1%
- viability, T/C [4]: 95.9%
- viability, T/C [5]: 99.6%
- viability, T/C [6]: 97%
- viability, T/C [7]: 99.3%
- viability, T/C [8]: 118%
- viability, T/C [9]: 108%
- viability, T/C [10]: 93.5%
- viability, T/C [11]: 92%
- viability, T/C [12]: 90.7%
- viability, T/C [13]: 98.6%
- viability, T/C [14]: 96.4%
- viability, T/C [15]: 101%
- viability, T/C [16]: 103%
- viability, T/C [17]: 86.6%
- viability, T/C [18]: 94.9%
- viability, T/C [19]: 99.9%
- viability, T/C [20]: 97%
- viability, T/C [21]: 102%
- viability, T/C [22]: 95.4%
- viability, T/C [23]: 97.7%
- viability, T/C [24]: 90.9%
- viability, T/C [25]: 108%
- viability, T/C [26]: 109%
- viability, T/C [27]: 103%
- viability, T/C [28]: 106%
- viability, T/C [29]: 97%
- viability, T/C [30]: 92.1%

SMILES: COc1cccc2c1C(=O)c1c(O)c3c(c(O)c1C2=O)CC(O)(C(=O)CO)CC3OC1CC(N)C(O)C(C)O1 (stereo not given) + CC(CO)NC(=O)c1cc(-c2ccc(Cl)cc2)nn(-c2cnn(C)c2)c1=O
- IC50 (second compound 0.1 µM): 8.45 µM
- IC50 (second compound 0.316 µM): 9.32 µM
- IC50 (second compound 1 µM): 8.98 µM
- IC50 (second compound 3.16 µM): 6.53 µM
- IC50 (second compound 10 µM): 3.24 µM
- viability, T/C [1]: 101%
- viability, T/C [2]: 106%
- viability, T/C [3]: 107%
- viability, T/C [4]: 96.3%
- viability, T/C [5]: 108%
- viability, T/C [6]: 40.6%
- viability, T/C [7]: 93.7%
- viability, T/C [8]: 106%
- viability, T/C [9]: 108%
- viability, T/C [10]: 93.5%
- viability, T/C [11]: 102%
- viability, T/C [12]: 46.7%
- viability, T/C [13]: 110%
- viability, T/C [14]: 95%
- viability, T/C [15]: 107%
- viability, T/C [16]: 97%
- viability, T/C [17]: 93.2%
- viability, T/C [18]: 45.5%
- viability, T/C [19]: 88%
- viability, T/C [20]: 91.6%
- viability, T/C [21]: 108%
- viability, T/C [22]: 96.7%
- viability, T/C [23]: 88.2%
- viability, T/C [24]: 27.4%
- viability, T/C [25]: 92%
- viability, T/C [26]: 103%
- viability, T/C [27]: 101%
- viability, T/C [28]: 89.7%
- viability, T/C [29]: 51.2%
- viability, T/C [30]: 0.36%

SMILES: Nc1ncn(C2CC(O)C(CO)O2)c(=O)n1 (stereo not given) + CC(CO)NC(=O)c1cc(-c2ccc(Cl)cc2)nn(-c2cnn(C)c2)c1=O
- IC50 (second compound 0.1 µM): > 1 µM
- IC50 (second compound 0.316 µM): > 1 µM
- IC50 (second compound 1 µM): > 1 µM
- IC50 (second compound 3.16 µM): > 1 µM
- IC50 (second compound 10 µM): > 1 µM
- viability, T/C (second compound 0.1 µM, first compound 0.00316 µM): 88.6%
- viability, T/C (second compound 0.1 µM, first compound 0.01 µM): 93.4%
- viability, T/C [1]: 98.4%
- viability, T/C [2]: 87.5%
- viability, T/C [3]: 99.4%
- viability, T/C [4]: 91.4%
- viability, T/C (second compound 0.316 µM, first compound 0.00316 µM): 80.4%
- viability, T/C (second compound 0.316 µM, first compound 0.01 µM): 89.9%
- viability, T/C [7]: 91%
- viability, T/C [8]: 98%
- viability, T/C [9]: 84.5%
- viability, T/C [10]: 85.3%
- viability, T/C (second compound 1 µM, first compound 0.00316 µM): 94.8%
- viability, T/C (second compound 1 µM, first compound 0.01 µM): 93.2%
- viability, T/C [13]: 89.9%
- viability, T/C [14]: 94.7%
- viability, T/C [15]: 101%
- viability, T/C [16]: 88.6%
- viability, T/C (second compound 3.16 µM, first compound 0.00316 µM): 95.2%
- viability, T/C (second compound 3.16 µM, first compound 0.01 µM): 85.2%
- viability, T/C [19]: 96%
- viability, T/C [20]: 92.3%
- viability, T/C [21]: 85%
- viability, T/C [22]: 84.3%
- viability, T/C (second compound 10 µM, first compound 0.00316 µM): 88.2%
- viability, T/C (second compound 10 µM, first compound 0.01 µM): 96%
- viability, T/C [25]: 88.7%
- viability, T/C [26]: 93.9%
- viability, T/C [27]: 82.9%
- viability, T/C [28]: 107%

Source: PubChem BioAssay AID1919002 (Molecular Pharmacology Branch, DTP, NCI, 2023)
